Test results reported in patent US9637483B2, “Heterocyclic compound” (TAKEDA PHARMACEUTICAL COMPANY LIMITED, priority 2013, dated 2017).

Tests used:
Format in all cases: biochemical
[1] = target: T1, JAK2 (Homo sapiens, UniProt O60674); assay: JAK2 enzyme inhibition test (LANCE method); conditions: 1 μM test compound; read-out: JAK2 enzyme inhibitory activity (%, 1 μM)
T1 construct: purchased Invitrogen
In short: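 TR-FRET (LANCE) read-out, ex 340/em 665 nm with 100 μs delay, after 1 hr room-temperature detection with europium anti-phosphotyrosine antibody and 20 mM EDTA. The preceding 1 hr kinase reaction combined JAK2, ULight-JAK1 substrate and ATP, added as 6 ng/mL, 300 nM and 45 μM solutions; enzyme-free wells defined 100% inhibition.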

[2] = target: T2, TYK2 (Homo sapiens, UniProt P29597); assay: TYK2 enzyme inhibition test (LANCE method); conditions: 1 μM test compound; read-out: TYK2 enzyme inhibitory activity (%, 1 μM)
T2 construct: purchased Invitrogen
In short: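 TR-FRET (LANCE) readout: after 1 h room-temperature kinase reaction, EDTA plus 4 nM Eu-labelled anti-phosphotyrosine antibody added, signal at 665 nm (340 nm excitation). Reaction combined TYK2, ULight-JAK1 substrate and ATP, prepared at 375 ng/mL, 300 nM and 30 μM before addition, in pH 7.5 HEPES/MgCl2 buffer; enzyme-free wells define full inhibition.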

[3] = target: T3, JAK1 (Homo sapiens, UniProt P23458); assay: JAK1 enzyme inhibition test (LANCE method); conditions: 1 μM test compound; for inhibition at 1 µM: read-out: JAK1 enzyme inhibitory activity (%, 1 μM)
T3 construct: purchased Invitrogen
In short: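 Inhibition expressed against no-enzyme wells (100% inhibition), from time-resolved fluorescence at 665 nm after Eu-anti-phosphotyrosine antibody/EDTA detection. Kinase reaction ran 1 h at room temperature, pH 7.5 HEPES buffer, ULight-JAK1 substrate and ATP diluted to 300 nM and 150 μM before addition.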

[4] = target: T4, JAK3 (Homo sapiens, UniProt P52333); assay: JAK3 enzyme inhibition test (LANCE method); conditions: 1 μM test compound; for inhibition at 1 µM: read-out: JAK3 enzyme inhibitory activity (%, 1 μM)
T4 construct: purchased Invitrogen
T4 sequence (P52333 1-1124): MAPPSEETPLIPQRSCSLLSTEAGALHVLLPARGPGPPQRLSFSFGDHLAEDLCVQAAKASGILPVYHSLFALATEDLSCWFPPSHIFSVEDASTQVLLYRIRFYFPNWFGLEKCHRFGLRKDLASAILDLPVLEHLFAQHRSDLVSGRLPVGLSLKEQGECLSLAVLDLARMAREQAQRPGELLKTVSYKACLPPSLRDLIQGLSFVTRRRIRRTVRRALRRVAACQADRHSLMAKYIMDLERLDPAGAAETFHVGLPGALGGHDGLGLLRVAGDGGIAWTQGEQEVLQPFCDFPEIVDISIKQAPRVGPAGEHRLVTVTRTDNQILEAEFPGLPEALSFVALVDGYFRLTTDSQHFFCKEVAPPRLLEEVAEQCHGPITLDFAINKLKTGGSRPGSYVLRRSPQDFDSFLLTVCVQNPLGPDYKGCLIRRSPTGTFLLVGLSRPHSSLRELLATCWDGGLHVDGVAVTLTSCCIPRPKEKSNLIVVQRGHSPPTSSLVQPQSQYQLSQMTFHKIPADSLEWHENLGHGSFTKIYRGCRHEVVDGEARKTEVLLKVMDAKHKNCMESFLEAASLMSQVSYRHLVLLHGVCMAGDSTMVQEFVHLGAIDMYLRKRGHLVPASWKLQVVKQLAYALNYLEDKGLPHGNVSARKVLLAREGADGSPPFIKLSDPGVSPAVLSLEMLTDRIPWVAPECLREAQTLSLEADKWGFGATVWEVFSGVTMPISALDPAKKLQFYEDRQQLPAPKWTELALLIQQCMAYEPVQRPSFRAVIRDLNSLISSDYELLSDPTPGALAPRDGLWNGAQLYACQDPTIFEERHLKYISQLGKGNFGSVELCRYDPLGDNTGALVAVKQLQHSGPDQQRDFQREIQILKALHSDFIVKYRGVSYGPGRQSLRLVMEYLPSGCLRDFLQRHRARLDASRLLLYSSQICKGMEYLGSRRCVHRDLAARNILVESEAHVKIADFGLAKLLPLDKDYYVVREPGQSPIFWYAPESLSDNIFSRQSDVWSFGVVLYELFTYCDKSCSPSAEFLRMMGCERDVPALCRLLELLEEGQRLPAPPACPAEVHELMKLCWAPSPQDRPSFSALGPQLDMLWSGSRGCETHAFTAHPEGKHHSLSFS
In short: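 TR-FRET (LANCE) read: 1 h room-temperature reaction, EDTA quench, Eu-anti-phosphotyrosine antibody, emission 665 nm after 340 nm excitation. Added solutions held 12 ng/mL JAK3, 300 nM ULight-JAK1 substrate and 15 μM ATP (pH 7.5 HEPES). Activity expressed against no-enzyme wells defined as full inhibition.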

T3 sequence (P23458 whole entry): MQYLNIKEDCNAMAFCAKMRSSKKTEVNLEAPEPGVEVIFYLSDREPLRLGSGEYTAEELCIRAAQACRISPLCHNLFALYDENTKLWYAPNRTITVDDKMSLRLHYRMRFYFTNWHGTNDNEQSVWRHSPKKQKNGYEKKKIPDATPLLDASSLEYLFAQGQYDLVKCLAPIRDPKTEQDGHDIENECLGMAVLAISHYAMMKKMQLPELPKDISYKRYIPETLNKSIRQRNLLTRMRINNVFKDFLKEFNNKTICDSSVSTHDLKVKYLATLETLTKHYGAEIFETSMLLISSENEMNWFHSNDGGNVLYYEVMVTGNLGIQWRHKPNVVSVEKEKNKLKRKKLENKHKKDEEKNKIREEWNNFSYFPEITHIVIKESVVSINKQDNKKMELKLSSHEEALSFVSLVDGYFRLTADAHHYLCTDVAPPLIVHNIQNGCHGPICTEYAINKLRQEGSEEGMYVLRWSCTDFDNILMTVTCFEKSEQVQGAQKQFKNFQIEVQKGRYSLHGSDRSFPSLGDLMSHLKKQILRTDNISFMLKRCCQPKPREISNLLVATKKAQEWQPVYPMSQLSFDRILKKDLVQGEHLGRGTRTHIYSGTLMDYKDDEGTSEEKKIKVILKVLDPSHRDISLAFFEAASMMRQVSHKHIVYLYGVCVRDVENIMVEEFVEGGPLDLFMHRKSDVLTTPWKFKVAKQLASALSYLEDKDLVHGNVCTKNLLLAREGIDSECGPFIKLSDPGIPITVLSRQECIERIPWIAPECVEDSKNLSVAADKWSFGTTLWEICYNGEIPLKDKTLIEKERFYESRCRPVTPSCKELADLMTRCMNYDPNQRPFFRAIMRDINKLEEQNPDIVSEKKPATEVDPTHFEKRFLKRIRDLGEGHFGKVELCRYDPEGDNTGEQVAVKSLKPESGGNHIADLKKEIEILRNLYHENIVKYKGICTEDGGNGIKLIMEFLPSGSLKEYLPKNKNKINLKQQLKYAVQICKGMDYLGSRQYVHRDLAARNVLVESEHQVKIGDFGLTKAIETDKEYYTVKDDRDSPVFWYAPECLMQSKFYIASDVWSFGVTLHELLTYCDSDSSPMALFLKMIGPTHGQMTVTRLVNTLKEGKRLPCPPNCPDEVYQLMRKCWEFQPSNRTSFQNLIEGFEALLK
T1 sequence (O60674 whole entry): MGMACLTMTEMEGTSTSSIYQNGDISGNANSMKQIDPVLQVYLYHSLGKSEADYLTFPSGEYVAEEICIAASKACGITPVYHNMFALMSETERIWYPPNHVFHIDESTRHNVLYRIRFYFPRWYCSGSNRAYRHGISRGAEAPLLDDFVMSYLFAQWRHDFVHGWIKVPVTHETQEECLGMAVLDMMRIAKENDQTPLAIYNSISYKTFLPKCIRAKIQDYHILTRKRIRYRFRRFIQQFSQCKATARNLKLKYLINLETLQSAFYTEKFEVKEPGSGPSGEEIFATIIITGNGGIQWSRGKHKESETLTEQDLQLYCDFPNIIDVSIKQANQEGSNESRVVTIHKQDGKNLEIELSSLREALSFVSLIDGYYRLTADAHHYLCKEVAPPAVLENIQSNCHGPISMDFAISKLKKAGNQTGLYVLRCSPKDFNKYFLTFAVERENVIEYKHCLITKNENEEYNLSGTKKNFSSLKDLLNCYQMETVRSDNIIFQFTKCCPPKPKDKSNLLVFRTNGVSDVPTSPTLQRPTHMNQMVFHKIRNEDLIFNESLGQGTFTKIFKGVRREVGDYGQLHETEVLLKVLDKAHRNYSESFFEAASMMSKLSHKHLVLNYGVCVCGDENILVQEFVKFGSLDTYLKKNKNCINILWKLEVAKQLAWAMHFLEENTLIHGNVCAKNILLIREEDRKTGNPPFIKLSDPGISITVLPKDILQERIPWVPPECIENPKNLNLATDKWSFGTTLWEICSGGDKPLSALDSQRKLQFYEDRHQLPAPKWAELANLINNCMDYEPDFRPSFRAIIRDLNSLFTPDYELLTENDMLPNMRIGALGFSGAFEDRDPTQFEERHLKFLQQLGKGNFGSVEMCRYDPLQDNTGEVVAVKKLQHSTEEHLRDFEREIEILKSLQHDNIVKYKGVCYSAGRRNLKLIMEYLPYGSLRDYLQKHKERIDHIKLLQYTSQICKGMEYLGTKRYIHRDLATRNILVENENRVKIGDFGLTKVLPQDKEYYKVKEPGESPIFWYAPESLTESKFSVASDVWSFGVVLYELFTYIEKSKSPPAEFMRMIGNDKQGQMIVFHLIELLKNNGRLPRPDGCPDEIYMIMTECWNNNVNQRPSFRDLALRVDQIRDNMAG
T2 sequence (P29597 whole entry): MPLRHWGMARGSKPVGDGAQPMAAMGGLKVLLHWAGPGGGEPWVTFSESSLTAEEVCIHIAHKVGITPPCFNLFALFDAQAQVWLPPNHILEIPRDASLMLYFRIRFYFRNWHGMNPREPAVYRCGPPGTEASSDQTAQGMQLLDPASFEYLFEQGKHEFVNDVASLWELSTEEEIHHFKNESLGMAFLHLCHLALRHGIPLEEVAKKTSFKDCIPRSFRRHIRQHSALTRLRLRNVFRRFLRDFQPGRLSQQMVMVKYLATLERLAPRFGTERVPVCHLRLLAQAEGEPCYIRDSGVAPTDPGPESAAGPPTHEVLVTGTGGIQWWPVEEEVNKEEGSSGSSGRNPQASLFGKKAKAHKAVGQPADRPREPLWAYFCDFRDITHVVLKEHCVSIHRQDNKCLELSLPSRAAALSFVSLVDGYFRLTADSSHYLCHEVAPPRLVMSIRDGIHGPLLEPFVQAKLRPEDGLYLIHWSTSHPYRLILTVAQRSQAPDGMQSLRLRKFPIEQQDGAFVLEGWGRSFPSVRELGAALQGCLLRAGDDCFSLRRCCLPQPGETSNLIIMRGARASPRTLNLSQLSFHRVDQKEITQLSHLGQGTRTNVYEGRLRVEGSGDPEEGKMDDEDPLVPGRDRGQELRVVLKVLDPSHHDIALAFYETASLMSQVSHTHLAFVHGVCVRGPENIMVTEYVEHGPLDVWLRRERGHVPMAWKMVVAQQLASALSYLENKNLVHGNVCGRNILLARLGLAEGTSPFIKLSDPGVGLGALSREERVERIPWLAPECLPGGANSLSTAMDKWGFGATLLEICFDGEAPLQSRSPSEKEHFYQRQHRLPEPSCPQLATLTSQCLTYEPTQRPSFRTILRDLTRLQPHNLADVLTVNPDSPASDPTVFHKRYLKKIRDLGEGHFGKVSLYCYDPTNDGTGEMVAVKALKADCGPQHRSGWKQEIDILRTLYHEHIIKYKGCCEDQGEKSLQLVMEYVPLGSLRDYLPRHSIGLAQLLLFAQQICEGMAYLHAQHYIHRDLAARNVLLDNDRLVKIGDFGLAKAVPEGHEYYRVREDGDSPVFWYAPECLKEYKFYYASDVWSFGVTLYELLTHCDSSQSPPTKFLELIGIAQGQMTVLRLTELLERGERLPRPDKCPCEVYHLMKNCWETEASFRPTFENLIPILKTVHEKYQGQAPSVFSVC

Compound	inhibition at 1 µM [1] [%]	inhibition at 1 µM [2] [%]	inhibition at 1 µM [3] [%]	inhibition at 1 µM [4] [%]	JAK1 enzyme inhibitory activity (%, 1 μM) ([3]; 1 µM) [%]	JAK3 enzyme inhibitory activity (%, 1 μM) ([4]; 1 µM) [%]
CN(c1cc(-c2cn(-c3c(F)cccc3C#N)c(=O)c3c(N)n[nH]c23)nn1C)C1CCCC1 [Example 123, 2-(3-amino-7-(5-(cyclopentyl(methyl)amino)-1-methyl-1H-pyrazol-3-yl)-4-oxo-1,4-dihydro-5H-pyrazolo[4,3-c]pyridin-5-yl)-3-fluorobenzonitrile]	94	100	97	95		
CO[C@]1(c2cc(-c3cn(-c4c(F)cccc4F)c(=O)c4c(N)n[nH]c34)nn2C)C[C@H](C(=O)N(C)C)C1 [Example 124, cis-3-(3-(3-amino-5-(2,6-difluorophenyl)-4-oxo-4,5-dihydro-1H-pyrazolo[4,3-c]pyridin-7-yl)-1-methyl-1H-pyrazol-5-yl)-3-methoxy-N,N-dimethylcyclobutanecarboxamide]	99	101	99	100		
CN(C)[C@@H]1CCN(c2cc(-c3cn(-c4c(F)cccc4F)c(=O)c4c(N)n[nH]c34)nn2C)C1 [Example 125, 3-amino-5-(2,6-difluorophenyl)-7-(5-((3R)-3-(dimethylamino)pyrrolidin-1-yl)-1-methyl-1H-pyrazol-3-yl)-1,5-dihydro-4H-pyrazolo[4,3-c]pyridin-4-one]	98	99	98	99		
CN(C)C[C@H]1CCCN1c1cc(-c2cn(-c3c(F)cccc3F)c(=O)c3c(N)n[nH]c23)nn1C [Example 126, 3-amino-5-(2,6-difluorophenyl)-7-(5-((2R)-2-((dimethylamino)methyl)pyrrolidin-1-yl)-1-methyl-1H-pyrazol-3-yl)-1,5-dihydro-4H-pyrazolo[4,3-c]pyridin-4-one]	98	98	92	99		
Cn1nc(-c2cn(-c3c(F)cccc3F)c(=O)c3c(N)n[nH]c23)cc1N1CCC(C)(C#N)CC1 [Example 127, 1-(3-(3-amino-5-(2,6-difluorophenyl)-4-oxo-4,5-dihydro-1H-pyrazolo[4,3-c]pyridin-7-yl)-1-methyl-1H-pyrazol-5-yl)-4-methylpiperidine-4-carbonitrile]	99	100	99	100		
COC[C@H]1CCCN1c1cc(-c2cn(-c3c(F)cccc3F)c(=O)c3c(N)n[nH]c23)nn1C [Example 128, 3-amino-5-(2,6-difluorophenyl)-7-(5-((2R)-2-(methoxymethyl)pyrrolidin-1-yl)-1-methyl-1H-pyrazol-3-yl)-1,5-dihydro-4H-pyrazolo[4,3-c]pyridin-4-one]	98	100	98	99		
COC1(c2cc(-c3cn(-c4c(F)cccc4F)c(=O)c4c(N)n[nH]c34)nn2C)CCS(=O)(=O)CC1 [Example 129, 3-amino-5-(2,6-difluorophenyl)-7-(5-(4-methoxy-1,1-dioxidotetrahydro-2H-thiopyran-4-yl)-1-methyl-1H-pyrazol-3-yl)-1,5-dihydro-4H-pyrazolo[4,3-c]pyridin-4-one]	99	100	97	99		
COC1(c2cc(-c3cn(-c4c(F)cccc4F)c(=O)c4c(N)n[nH]c34)nn2C)CN(C(=O)C(C)C)C1 [Example 130, 3-amino-5-(2,6-difluorophenyl)-7-(5-(1-isobutyryl-3-methoxyazetidin-3-yl)-1-methyl-1H-pyrazol-3-yl)-1,5-dihydro-4H-pyrazolo[4,3-c]pyridin-4-one]	98	101	96	99		
COC1(c2cc(-c3cn(-c4c(F)cccc4F)c(=O)c4c(N)n[nH]c34)nn2C)CN(C(C)=O)C1 [Example 131, 7-(5-(1-acetyl-3-methoxyazetidin-3-yl)-1-methyl-1H-pyrazol-3-yl)-3-amino-5-(2,6-difluorophenyl)-1,5-dihydro-4H-pyrazolo[4,3-c]pyridin-4-one]	98	100	95	99		
COC1(c2cc(-c3cn(-c4c(F)cccc4F)c(=O)c4c(N)n[nH]c34)nn2C)CN(S(C)(=O)=O)C1 [Example 132, 3-amino-5-(2,6-difluorophenyl)-7-(5-(3-methoxy-1-(methylsulfonyl)azetidin-3-yl)-1-methyl-1H-pyrazol-3-yl)-1,5-dihydro-4H-pyrazolo[4,3-c]pyridin-4-one]	98	100	94	99		
C[C@H](C1CC1)n1cc(-c2cc(N3CCC(C)(O)CC3)n(C)n2)c2[nH]nc(N)c2c1=O [Example 133, 3-amino-5-((1R)-1-cyclopropylethyl)-7-(5-(4-hydroxy-4-methylpiperidin-1-yl)-1-methyl-1H-pyrazol-3-yl)-1,5-dihydro-4H-pyrazolo[4,3-c]pyridin-4-one]	87	99	91	96		
CC(C)[C@H](C)n1cc(-c2cc(N(C)C3CCCC3)n(C)n2)c2[nH]nc(N)c2c1=O [Example 134, 3-amino-7-(5-(cyclopentyl(methyl)amino)-1-methyl-1H-pyrazol-3-yl)-5-((2S)-3-methylbutan-2-yl)-1,5-dihydro-4H-pyrazolo[4,3-c]pyridin-4-one]	98	99	97	99		
COC[C@H]1CCCN1c1cc(-c2cn([C@@H](C)C(C)C)c(=O)c3c(N)n[nH]c23)nn1C [Example 135, 3-amino-7-(5-((2R)-2-(methoxymethyl)pyrrolidin-1-yl)-1-methyl-1H-pyrazol-3-yl)-5-((2S)-3-methylbutan-2-yl)-1,5-dihydro-4H-pyrazolo[4,3-c]pyridin-4-one]	98	100	96	99		
COC1(c2cc(-c3cn([C@@H](C)C(C)C)c(=O)c4c(N)n[nH]c34)nn2C)CN(S(=O)(=O)C(C)C)C1 [Example 136, 3-amino-7-(5-(1-(isopropylsulfonyl)-3-methoxyazetidin-3-yl)-1-methyl-1H-pyrazol-3-yl)-5-((2S)-3-methylbutan-2-yl)-1,5-dihydro-4H-pyrazolo[4,3-c]pyridin-4-one]	98	100	80	98		
COC1(c2cc(-c3cn(C(C#N)C(C)C)c(=O)c4c(N)n[nH]c34)nn2C)CCC(F)(F)CC1 (stereo not drawn) [Example 137, 2-(3-amino-7-(5-(4,4-difluoro-1-methoxycyclohexyl)-1-methyl-1H-pyrazol-3-yl)-4-oxo-1,4-dihydro-5H-pyrazolo[4,3-c]pyridin-5-yl)-3-methylbutanenitrile]	99	99			92	98
